Data reported in patent US10428111B2, “Cancer targeting by anti-EGFR peptides and applications thereof” (priority 2015, dated 2019).
Like-named read-outs stand apart in the source and are kept apart here.

Columns and labels:
[1] = Bio-distribution study (DOX in plasma, tumor and tissues); format: in vivo, BALB/c mice; conditions: 15 mg/kg as DOX; after 3 hours
Procedure: Two weeks after tumor inoculation, when the tumors were approximately 5 mm wide, mice (3 per group) were injected via the tail vain with either 15 mg/kg of doxorubicin as Caelyx® or targeted liposomes. Control mice received 200 μL of dextrose 5%. Blood samples were collected via retro orbital bleeding (approx. 0.5 mL) 3, 6, and 12 hours after the dosing. After 24 hours, the group was sacrificed for tissue collection. Blood samples were collected by heart puncture, and the whole tumor, kidneys, spleen, heart, lungs as well as a portion of liver and muscle were dissected, weighted and placed in a 2 mL Polypropylene Microvials containing 1 mL of acidified isopropanol and zirconia bead sand homogenized by Mini-Beadbeater-1. The blood was allowed to coagulate at 4° C. and then centrifuged for 10 min at 14,000 rpm. Then, serum was collected and an adequate volume was diluted in 1 mL acidified isopropanol. The homogenized tissue samples and the sera were stored overnight at 4° C. to extract the drug. The samples were then centrifuged and the supernatant was assayed for DOX concentration spectrofluorimetrically (Ex:470 nm, Em:590 nm). The calibration curve was prepared using serial dilutions of Doxil the tissue and sera extracts of the control mice. […]

[2] = test system: TUBO breast carcinoma tumor; assay: Chemotherapy study in tumor-bearing mice; conditions: for CR (complete regression) / TFS (tumor free survivor): number of animals of n = 4-5; for TGD (Tumor growth delay): versus dextrose 5% control
Procedure: Initially, on day 0, female BALB/c mice aged 4-6 weeks were given subcutaneous injections of TUBO tumor cells (5×10^5 cells per mouse) in the right flank. On day 11, post-tumoring mice with palpable tumor received 0.2 mL via a single tail vein injection of either dextrose 5% solution as negative control or doxorubicin encapsulated in liposomes (15 mg/kg). Mice were weighed and tumor sizes were monitored during the experimental period. The tumor volume was estimated by measuring three orthogonal diameters (a, b, and c) with calipers; the volume was calculated as (a×b×c)×0.5 mm^3. Tumors that were just palpable were defined as 1 mm^3. To survival study, the mice were monitored for up to 120 days post-tumoring or until one of the following conditions for euthanasia was met: (1) their body weight dropped below 20% of their initial mass; (2) their tumor was greater than 2.0 cm across in any dimension; (3) they became lethargic or sick and unable to feed; or (4) they were found dead. The time to reach the endpoint (TTE) for each mouse was calculated from the equation of the line obtained by exponential regression of the tumor growth curve. Subsequently, the percent of tumor growth delay (% TGD) were calculated based on the difference between the mean TTE of treatment group (T) and theme an TTE of the control group (C) (% TGD=[(T−C)/C]×100). […] In a partial regression response, the tumor volume is less than or equal to 50% of its day 1 volume for three consecutive measurements during the course of the study, and greater than or equal to 13.5 mm^3 for one or more of these three measurements. In a complete regression response, the tumor volume is less than 13.5 mm^3 for three consecutive measurements during the course of the study. An animal with a complete regression response at the end of the study was additionally classified as a tumor-free survivor.
The investigation to get the above-mentioned results took place in female BALB/c mice earing TUBO breast carcinoma tumor after administration of a single dose of 15 mg/kg liposome loaded by doxorubicin (DOX) or dextrose 5% on day 11 after tumor inoculation.

[3] = test system: MDA-MB-231 (HER2-Low expressing cells); assay: MTT cytotoxicity study; format: cell-based; conditions: then 48 hours, mean ± SD, n = 3
Procedure: (§1) The anti-proliferative effects of liposomal preparations containing DOX were assessed using MTT assay. SK-BR-3, TUBO, and MDA-MB-231 cells were seeded at 7000, 10,000, 2500 cells/well in 96 well plates. After an overnight incubation, the medium was replaced with FCS free medium containing 1:2 serial dilutions of liposomal DOX or free DOX. After 3 hours and 6 hours' incubation times at 37° C., cells were washed with pre-warmed complete culture media and re-incubated further for 48 hours at 37° C. in their complete culture medium. Then, the medium was replaced with 100 μL of freshly prepared MTT (10% v/v, 5 mg/mL) and FCS free culture medium. Finally, after 4 hours of incubation at 37° C., the absorbance at 545 nm was recorded. Relative cell death (R) was calculated as follows: R=1−[(Atest−Ablank)/(Acontrol−Ablank)] Equation (1)
(§2) In the above Equation (1), Atest is the absorbance values of the cells treated with the test solutions and Acontrol is the absorbance values of the culture medium (negative control). Ablank is the absorbance of MTT solution added in cell free wells. The IC50 was then calculated using CalcuSyn version 2 software (BIOSOFT, UK).

[4] = test system: SKBR3 (HER2-overexpressing cells); assay: MTT cytotoxicity study; format: cell-based, human; conditions: then 48 hours, mean ± SD, n = 3
Procedure: as §1, §2

[5] = test system: TUBO (HER2-overexpressing cells); assay: MTT cytotoxicity study; format: cell-based, mice; conditions: then 48 hours, mean ± SD, n = 3
Procedure: as §1, §2

[6] = Table 3B (719W), liposomes 15 mg/kg, DOX 10 mg/kg

**Q.** For `COc1cccc2c1C(=O)c1c(O)c3c(c(O)c1C2=O)C[C@@](O)(C(=O)CO)C[C@@H]3O[C@H]1C[C@H](N)[C@H](O)[C@H](C)O1` [DOX, doxorubicin], which “plasma concentration of DOX after intravenous injection” value [1] is on record?
**A.** below the detection limit

**Q.** And the “CR (complete regression)” value ([2]; Table 3A (420W))?
**A.** 0

**Q.** And the “TFS (tumor free survivor)” value ([2]; Table 3A (420W))?
**A.** 0

**Q.** And the “TTE (time to reach the end point)” value ([2]; Table 3A (420W), single i.v. dose on day 11, monitored up to 120 days)?
**A.** 70.4 days

**Q.** And the “MST (Median survival Time)” value ([2]; Table 3A (420W), single i.v. dose on day 11 after tumor inoculation, monitored up to 120 days)?
**A.** 69.2 days

**Q.** And the “TGD (Tumor growth delay)” value ([2]; Table 3A (420W))?
**A.** 18%

**Q.** And the “TTE (time to reach the end point)” value [2, 6]?
**A.** 70.4 days

**Q.** What about the “CR (complete regression)” value [2, 6] of the same compound?
**A.** 0

**Q.** What about the “TFS (tumor free survivor)” value [2, 6] of the same compound?
**A.** 0

**Q.** What about the “MST (Median survival Time)” value ([2]; Table 3B (719W), single i.v. dose, liposomes 15 mg/kg, DOX 10 mg/kg, up to 120 days) of the same compound?
**A.** 69.2 days

**Q.** What about the “TGD (Tumor growth delay)” value [2, 6] of the same compound?
**A.** 18%

**Q.** And the IC50 ([3]; Table 2A (420W), 3 hours incubation, read-out: IC50 MDA-MB-231 3 hours)?
**A.** 600 ± 50 nM

**Q.** And the IC50 ([3]; Table 2A (420W), 6 hours incubation, read-out: IC50 MDA-MB-231 6 hours)?
**A.** 260 ± 10 nM

**Q.** And the IC50 ([3]; Table 2B (719W), 3 h incubation, read-out: IC50 MDA-MB-231 3 h)?
**A.** 600 ± 90 nM

**Q.** And the IC50 ([3]; Table 2B (719W), 6 h incubation, read-out: IC50 MDA-MB-231 6 h)?
**A.** 260 ± 40 nM

**Q.** What about the IC50 ([4]; Table 2A (420W), 3 hours incubation, read-out: IC50 SKBR3 3 hours) of the same compound?
**A.** 620 ± 20 nM

**Q.** What about the IC50 ([4]; Table 2A (420W), 6 hours incubation, read-out: IC50 SKBR3 6 hours) of the same compound?
**A.** 390 ± 50 nM

**Q.** What about the IC50 ([4]; Table 2B (719W), 3 h incubation, read-out: IC50 SKBR3 3 h) of the same compound?
**A.** 560 ± 20 nM

**Q.** What about the IC50 ([4]; Table 2B (719W), 6 h incubation, read-out: IC50 SKBR3 6 h) of the same compound?
**A.** 240 ± 10 nM

**Q.** And the IC50 ([5]; Table 2A (420W), 3 hours incubation, read-out: IC50 TUBO 3 hours)?
**A.** 150 ± 70 nM

**Q.** What about the IC50 ([5]; Table 2A (420W), 6 hours incubation, read-out: IC50 TUBO 6 hours) of the same compound?
**A.** 90 ± 10 nM

**Q.** And the IC50 ([5]; Table 2B (719W), 3 h incubation, read-out: IC50 TUBO 3 h)?
**A.** 150 ± 10 nM

**Q.** What about the IC50 ([5]; Table 2B (719W), 6 h incubation, read-out: IC50 TUBO 6 h) of the same compound?
**A.** 90 ± 30 nM
